Measured values: patent US20070060655A1, “Use of agomelatine in obtaining medicaments intended for the treatment of sleep disorders in the depressed patient” (LES LABORATOIRES SERVIER, priority 2005, published 2007)

Assays:
Format in all cases: in vivo, human
[1] = system: patients with a characterised depressive state; assay: double-blind clinical study over 6 weeks compared with venlafaxine (Hamilton Scale of Depression, Leeds Sleep Evaluation Questionnaire)
Procedure: Another study evaluating sleep improvement was carried out in patients with a characterised depressive state as a double blind over 6 weeks compared with venlafaxine. After one week placebo, 332 patients were randomised: 165 received 25 mg/day of agomelatine and 167 received 75 mg/day of venlafaxine for 2 weeks. After 2 weeks of treatment, if clinical improvements obtained were found insufficient, the doses for some patients were doubled to 50 mg/day of agomelatine or 150 mg/day of venlafaxine for the following weeks.

[2] = system: sleep disorders in the depressed patient; assay: double-blind clinical study over 6 weeks in comparison with mirtazapine, polysomnographic recording of sleep; settings: 6 weeks of treatment
Excerpt: The action specific to agomelatine on sleep disorders in the depressed patient is established in comparison with mirtazapine. This study, carried out as a double-blind over 6 weeks of treatment, has, as its principal criterion of efficacy, the polysomnographic recording of sleep. The Hamilton Scale of Depression allows the antidepressant efficacy to be documented.

[3] = system: patients with a characterised depressive state; assay: pilot study of sleep polysomnographic parameters in 15 patients; settings: agomelatine 25 mg; polysomnography
Procedure: Lastly, effects of agomelatine on the sleep polysomnographic parameters were evaluated in a pilot study carried out in 15 patients with a characterised depressive state. […] Furthermore, agomelatine increase the total duration of sleep, reduce the number of nocturnal wakenings, and as a consequence improve sleep efficacy.

[4] = versus venlafaxine, p less than or equal to 0.001

COc1ccc2cccc(CCNC(C)=O)c2c1 [agomelatine, N-[2-(7-methoxy-1-naphthyl)ethyl]acetamide]
antidepressant efficacy (Hamilton Scale of Depression) ([1]; agomelatine 25 mg/day (up to 50 mg/day) versus venlafaxine 75 mg/day (up to 150 mg/day), 6 weeks): comparable efficacy of agomelatine versus venlafaxine
"sensation of well-being" [1, 4]: equally significant improvement
"sleepiness during the day" [1, 4]: equally significant improvement
LSEQ item "quality of sleep" (QOS) ([1]; versus venlafaxine, p=0.015): appreciably greater efficacy
LSEQ item "ease of getting to sleep" (GTS) ([1]; versus venlafaxine, significant difference from the first week (p=0.007), continuing during the 6 weeks): more important and faster to appear than for venlafaxine
efficacy in the treatment of sleep disorders in the depressed patient (polysomnographic recording of sleep) [2]: especially effective
REM (rapid eye movements) sleep [3]: without alteration
absolute and relative durations of cycles 3 and 4 of the recording of the electroencephalographic activity [3]: significantly improved
number of nocturnal wakenings [3]: reduce
onset of the beneficial effects on sleep [3]: from the first week of treatment
sleep efficacy [3]: improve
sleep physiological structure [3]: Restoration of the sleep physiological structure was observed
total duration of sleep [3]: increase
